# Assay results taken from US20080039431A1, “Method of improving plant growth by reducing viral infections” (priority 2006, published 2008).
# “And” between values parts separate entries of the source, which are not always exact repeats. Equal values may be shown once.
# Key:
# [1] = system: tomato spotted wilt virus (TSWV); test: Tobacco drench / broadcast spray trial (Example 8); format: in vivo, tobacco (Nicotiana tabacum); settings: prothioconazole 0.0084 g ai/plant, imidacloprid 0.01 g/plant (drench), acibenzolar-S-methyl 2.47 g ai/Ha broadcast spray
# Source text: Cultivation—A trial on tobacco (Nicotiana tabacum) was initiated in Molino, Fla., to see if drenches of prothioconazole alone and in combination with the insecticide imidacloprid could control TSWV in tobacco. Plants of cultivar C-371 Gold were transplanted on April 28 into 9.1 meter plots with three replications. All eight treatments were applied after transplanting on May 1. Foliar treatments were applied as a broadcast spray, while drenches were applied as in Example 6. Acibenzolar-S-methyl is a plant defense activator used to control TSWV in tobacco.
# Treatments— • Untreated • Imidacloprid@0.01 g imidacloprid/plant • Imidacloprid@0.015 g Imidacloprid/plant • Prothioconazole@0.0084 g active ingredient/plant • Prothioconazole@0.0084 g active ingredient/plant+Imidacloprid@0.01 g imidacloprid/plant • Prothioconazole@0.0084 g active ingredient/plant+Imidacloprid@0.015 g […] label. • Acibenzolar-S-methyl@2.47 g active ingredient/Ha as a broadcast spray as per label.
# TSWV rating—For TSWV incidence determination the percentage of plants with TSWV symptoms (chlorosis and stunting) was determined for the eight treatments as in Example 6.
# [2] = system: tomato spotted wilt virus (TSWV); test: Non-replicated GLP peanut residue trial, Molino, Fla. (Example 5); format: in vivo; settings: for Percent row feet infected with TSWV: Georgia Green, rated August 23, 160 row ft plot
# Method: Cultivation—A non-replicated GLP peanut residue trial was conducted in Molino, Fla., using similar methods as in Examples 3 and 4. The cultivar used was Georgia Green. Prothioconazole treated seed were prepared on May 12. Plots were 160 row ft. in length. Treatments— • Untreated—no in-furrow treatment, chlorothalonil maintenance only for foliar diseases. • Seed treatment, in-furrow, and foliar—prothioconazole seed treatment@10 g active ingredient/100 kg seed plus prothioconazole applied in-furrow@200 g active ingredient/Ha followed by a program of three chlorothalonil applications and four applications of prothioconazole@100 g active ingredient/Ha. • Foliar only—A program of three chlorothalonil applications and four applications of prothioconazole@200 g active ingredient/Ha. TSWV rating—For TSWV incidence determination, on August 23 the number of row feet per plot with TSWV symptoms (chlorosis and stunting) was determined for the three treatments. Statistics cannot be run on single replication trials.
# [3] = system: tomato spotted wilt virus (TSWV); test: Bell pepper drench trial (Example 7); format: in vivo, bell pepper (Capsicum annum L.); settings: for Percent control of incidence of TSWV in bell peppers: Abbott's formula; for Percent incidence TSWV in bell peppers: drench, prothioconazole 0.0084 g ai/plant, imidacloprid 0.01 g/plant
# Method: Cultivation—A trial on bell pepper (Capsicum annum L.) was initiated in Molino, Fla. to see if drenches of prothioconazole alone and in combination with the insecticide imidacloprid could control TSWV in pepper. Bell pepper plants were transplanted on April 11 into 9.1 meter plots with three replications as in Example 6. Treatments were applied as a drench in 40 ml water per plant (7 days after transplanting) on April 18 as in Example 6.
# Treatments— • Untreated—no in-furrow treatment. • Imidacloprid—imidacloprid@0.01 g imidacloprid/plant. • Prothioconazole—prothioconazole@0.0084 g prothioconazole/plant. • Prothioconazole+Imidacloprid—prothioconazole@0.0084 g active ingredient/plant+imidacloprid@0.01 g imidacloprid/plant.
# TSWV rating—For TSWV incidence determination, the percentage of plants with TSWV symptoms (chlorosis and stunting) was determined for the four treatments at 21, 29, 38, and 47 days after treatment as in Example 6.
# Synergy formula—The Colby formula for proof of synergy was used in Example 7 as in Example 6.
# [4] = system: tomato spotted wilt virus (TSWV); test: Replicated peanut field trials, in-furrow treatment at planting (Examples 1-3); format: in vivo, peanut (Arachis hypogaea L.); settings: for TSWV Incidence (number of symptomatic feet of row per 60 foot plot): 8 replicate plots
# Method: Cultivation—Three replicated field trials were conducted at the Bayer CropScience research farm in Tifton, Ga., using standard commercial peanut practices. Prior to planting, fields were flag staked to establish 8 replications per treatment per trial of two rows by 30 ft long (6 ft by 30 ft, 60 row feet total) each. On May 19, two cultivars of peanut (Arachis hypogaea L.), Georgia Green (two fields, Examples 1 and 2) and Carver (one field, Example 3) were planted using a two-row Monosem air planter. During the planting passes a tractor mounted compressed air system was used to spray the in-furrow treatment into the furrow before row closure. All other plots were not treated at planting. Single field passes were used to plant entire fields to ensure a uniform planting depth. Treatments— • Treated—Plots received an in-furrow application of prothioconazole at planting at a rate of 200 g prothioconazole/Ha. Through the season these plots received foliar fungicide maintenance using standard commercial fungicides including chlorothalonil and tebuconazole. • Untreated—Due to standard practices in peanut pesticide testing, each treated plot always included untreated peanut plots adjacent to the treated plots that serve as spacer rows. […] Untreated plots in Examples 1 and 3 received foliar maintenance applications to control foliar diseases. […] TSWV rating—Plots were examined periodically following emergence for differences in appearance. In certain instances, (August 19 data for example), TSWV incidence is determined as the number of row feet with TSWV symptoms (chlorosis and stunting) which was determined for the two treatments.
# [5] = system: tomato spotted wilt virus (TSWV); test: Non-replicated GLP peanut residue trial, Tifton, Ga. (Example 4); format: in vivo; settings: for Percent row feet infected with TSWV: rated August 22, 525 row ft plot
# Method: Cultivation—A non-replicated GLP (good laboratory practice) peanut residue trial was in progress at the Tifton, Ga., location using similar cultivation methods as in Examples 1-3. The planting and in-furrow treatment date was May 26. Prothioconazole treated seed were prepared two weeks prior on May 12. Plots were 525 row ft. Treatments— • Untreated—no in-furrow treatment, chlorothalonil maintenance only for foliar diseases. • Seed treatment, in-furrow, and foliar—prothioconazole seed treatment@10 g active ingredient/100 kg seed plus prothioconazole applied in-furrow@200 g active ingredient/Ha followed by prothioconazole@100 g active ingredient/Ha on July 21, August 4, and August 18. • Foliar only—prothioconazole@200 g active ingredient/Ha on July 21, August 4, and August 18. TSWV rating—For TSWV incidence determination, on August 22 the number of row feet per plot with TSWV symptoms (chlorosis and stunting) was determined for the three treatments. Statistics cannot be run on single-replication trials.
compound,measurement,setting,value
"OC(Cc1ccccc1Cl)(Cn1nc[nH]c1=S)C1(Cl)CC1 (centres unmarked) [Prothioconazole, prothioconazole]",Percent incidence TSWV in tobacco,[1]; 14 days after treatment,32.2%
same,Percent incidence TSWV in tobacco,[1]; 21 days after treatment,35.0%
same,Percent incidence TSWV in tobacco,[1]; 38 days after treatment,56.7%
same,Percent row feet infected with TSWV,[2]; foliar only: three chlorothalonil and four prothioconazole 200 g ai/Ha applications,16.25%
same,Percent row feet infected with TSWV,[2]; seed treatment 10 g ai/100 kg seed + in-furrow 200 g ai/Ha + three chlorothalonil and four prothioconazole 100 g ai/Ha applications,10.6%
same,Number of row feet infected with TSWV compared with foliar only program or chlorothalonil maintenance only,"[2]; seed treatment, in-furrow, and foliar prothioconazole applications (treatment 2)",numerically lower
same,Percent control of incidence of TSWV in bell peppers,[3]; 21 days after treatment,24.90%
same,Percent incidence TSWV in bell peppers,[3]; 21 days after treatment,18.1%
same,Percent control of incidence of TSWV in bell peppers,[3]; 29 days after treatment,32.20%
same,Percent incidence TSWV in bell peppers,[3]; 29 days after treatment,31.8%
same,Percent control of incidence of TSWV in bell peppers,[3]; 38 days after treatment,12.84%
same,Percent incidence TSWV in bell peppers,[3]; 38 days after treatment,44.8%
same,Percent control of incidence of TSWV in bell peppers,[3]; 47 days after treatment,6.44%
same,Percent incidence TSWV in bell peppers,[3]; 47 days after treatment,49.4%
same,Increase of TSWV level from 38 DAT to 47 DAT,"[3]; bell pepper, untreated increased by 1.4 percent",roughly 4.5%
same,Reduction of TSWV incidence compared to untreated,"[4]; Carver trial (Example 3), in-furrow treatment",not significant
same,TSWV Incidence (number of symptomatic feet of row per 60 foot plot),"[4]; Example 1, Georgia Green, in-furrow 200 g prothioconazole/Ha at planting with foliar maintenance (chlorothalonil, tebuconazole)",18 feet of row per 60 foot plot (2×) and 14 feet of row per 60 foot plot and 19 feet of row per 60 foot plot (2×) and 8 feet of row per 60 foot plot and 12 feet of row per 60 foot plot and 20 feet of row per 60 foot plot
same,TSWV Incidence (number of symptomatic feet of row per 60 foot plot),"[4]; Example 2, Georgia Green, in-furrow 200 g prothioconazole/Ha at planting with foliar maintenance, adjacent untreated had no foliar maintenance",13 feet of row per 60 foot plot and 25 feet of row per 60 foot plot (2×) and 24 feet of row per 60 foot plot and 17 feet of row per 60 foot plot and 18 feet of row per 60 foot plot and 27 feet of row per 60 foot plot and 20 feet of row per 60 foot plot
same,TSWV Incidence (number of symptomatic feet of row per 60 foot plot),"[4]; Example 3, Carver, in-furrow 200 g prothioconazole/Ha at planting with foliar maintenance",17 feet of row per 60 foot plot and 8 feet of row per 60 foot plot and 19 feet of row per 60 foot plot and 26 feet of row per 60 foot plot and 12 feet of row per 60 foot plot and 16 feet of row per 60 foot plot and 7 feet of row per 60 foot plot and 9 feet of row per 60 foot plot
same,TSWV incidence in percent of row feet with symptoms compared to untreated controls,"[4]; Georgia Green (Example 1 and 2), in-furrow treatment",significantly lower
same,Percent row feet infected with TSWV,[5]; foliar only 200 g ai/Ha x3,30.5%
same,Percent row feet infected with TSWV,[5]; seed treatment 10 g ai/100 kg seed + in-furrow 200 g ai/Ha + foliar 100 g ai/Ha x3,24.0%
same,Number of row feet infected with TSWV compared with foliar only program or untreated,"[5]; seed treatment, in-furrow, and foliar applications",numerically lower
